Patent publication US20230382924A1, “MODULATORS OF CYSTIC FIBROSIS TRANSMEMBRANE CONDUCTANCE REGULATOR” (VERTEX PHARMACEUTICALS INCORPORATED, priority 2020, published 2023)
Read-outs that look alike come from different tables or passages of the source.

Assays:
[1] = biological target: CFTR (Homo sapiens, UniProt P13569); assay: Membrane Potential Dye, Enteroid Assay A; assay type: cell-based; conditions: for EC50: read-out: Ent. A EC50
In short: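 Signal is reported as % Activity relative to a triple CFTR modulator control (3 μM + 3 μM + 300 nM acute). Read-out: membrane potential fluorescence (20 μM methyl oxonol) monitored for 15 min after chloride-free stimulation. Dye loading took 25 min at room temperature in Bath 1 buffer containing CaCC blockers.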

Chain of CFTR (P13569 with tags, fused parts or gaps DEL508-508): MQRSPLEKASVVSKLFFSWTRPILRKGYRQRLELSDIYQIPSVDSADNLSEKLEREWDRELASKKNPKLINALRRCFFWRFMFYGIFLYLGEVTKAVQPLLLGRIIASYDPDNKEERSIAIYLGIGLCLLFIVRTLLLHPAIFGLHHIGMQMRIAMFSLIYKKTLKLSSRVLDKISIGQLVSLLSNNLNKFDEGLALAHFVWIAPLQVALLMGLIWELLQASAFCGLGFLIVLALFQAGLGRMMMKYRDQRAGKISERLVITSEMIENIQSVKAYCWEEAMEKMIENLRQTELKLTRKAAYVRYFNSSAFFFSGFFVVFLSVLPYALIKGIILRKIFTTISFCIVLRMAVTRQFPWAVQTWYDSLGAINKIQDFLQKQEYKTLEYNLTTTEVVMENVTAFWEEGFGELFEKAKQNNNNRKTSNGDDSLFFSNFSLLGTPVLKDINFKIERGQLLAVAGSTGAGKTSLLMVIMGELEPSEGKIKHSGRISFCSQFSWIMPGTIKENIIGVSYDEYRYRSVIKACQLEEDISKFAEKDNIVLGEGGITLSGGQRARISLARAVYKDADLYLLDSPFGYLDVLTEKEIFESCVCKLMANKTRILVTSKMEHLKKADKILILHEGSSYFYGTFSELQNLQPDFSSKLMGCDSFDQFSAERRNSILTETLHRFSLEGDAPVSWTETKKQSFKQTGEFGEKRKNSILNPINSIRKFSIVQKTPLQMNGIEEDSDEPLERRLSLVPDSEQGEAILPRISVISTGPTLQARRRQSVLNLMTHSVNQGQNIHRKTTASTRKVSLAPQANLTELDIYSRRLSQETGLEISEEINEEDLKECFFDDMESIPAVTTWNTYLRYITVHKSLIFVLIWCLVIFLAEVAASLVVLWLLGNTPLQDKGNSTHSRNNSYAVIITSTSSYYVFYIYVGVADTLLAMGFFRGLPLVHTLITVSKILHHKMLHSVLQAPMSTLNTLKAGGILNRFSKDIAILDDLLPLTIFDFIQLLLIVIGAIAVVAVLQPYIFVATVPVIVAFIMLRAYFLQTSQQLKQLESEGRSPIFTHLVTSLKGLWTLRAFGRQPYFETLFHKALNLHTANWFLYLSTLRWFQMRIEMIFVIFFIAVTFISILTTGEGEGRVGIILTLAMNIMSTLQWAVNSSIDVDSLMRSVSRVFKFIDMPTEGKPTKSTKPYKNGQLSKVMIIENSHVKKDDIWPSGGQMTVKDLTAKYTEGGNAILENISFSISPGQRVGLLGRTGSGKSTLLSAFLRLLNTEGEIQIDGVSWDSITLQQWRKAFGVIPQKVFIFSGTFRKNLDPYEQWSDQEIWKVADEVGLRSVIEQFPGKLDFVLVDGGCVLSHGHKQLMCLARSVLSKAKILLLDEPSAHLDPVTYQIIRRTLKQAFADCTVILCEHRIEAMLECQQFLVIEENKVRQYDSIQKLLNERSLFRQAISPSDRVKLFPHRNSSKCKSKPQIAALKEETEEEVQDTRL

| Compound | Ent. A Max Activity ([1]; Table 9) | EC50 ([1]; Table 9) [µM] | Ent. A Max Activity ([1]; Table 8) | EC50 ([1]; Table 8) [µM] | other results |
| --- | --- | --- | --- | --- | --- |
| Cc1cccc(C)c1-c1cc2nc(n1)NS(=O)(=O)c1cccc(c1)C(=O)NCC(c1ccc(C(C)(C)C)cc1)O2 (stereo not drawn) [Compound 3, 10-(4-tert-butylphenyl)-6-(2,6-dimethylphenyl)-2,2-dioxo-9-oxa-2λ^6-thia-3,5,12,19-tetrazatricyclo[12.3.1.14,8]nonadeca-1(18),4(19),5,7,14,16-hexaen-13-one] | – | – | +++ (+++ is >60%) | < 1 | ring closure, yield after HPLC (from Cc1cccc(C)c1-c1cc(Cl)nc(NS(=O)(=O)c2cccc(C(=O)NCC(O)c3ccc(C(C)(C)C)cc3)c2)n1, snar bond, 13-membered ring, NaH, NMP, 8.5 mM, 90.0 °C, 2.5 h): 12% |
| Cc1cccc(C)c1-c1cc2nc(n1)NS(=O)(=O)c1cccc(c1)C(=O)NCC(C(=O)NCCC(C)(C)C)O2 (stereo not drawn) [Compound 30, N-(3,3-Dimethylbutyl)-6-(2,6-dimethylphenyl)-2,2,13-trioxo-9-oxa-2λ^6-thia-3,5,12,19-tetrazatricyclo[12.3.1.14,8]nonadeca-1(18),4(19),5,7,14,16-hexaene-10-carboxamide] | – | – | – | 3 to 30 | ring closure, yield after HPLC (from Cc1cccc(C)c1-c1cc(OC(CN)C(=O)NCCC(C)(C)C)nc(NS(=O)(=O)c2cccc(C(=O)O)c2)n1, amide bond, 13-membered ring, HATU/DIEA, DMF, 30.2 mM, 25.0 °C, 0.25 h): 28% |
| Cc1cccc(C)c1-c1cc2nc(n1)NS(=O)(=O)c1cccc(c1)C(=O)NCC(c1ccccc1Cl)O2 (stereo not drawn) [Compound 31, 10-(2-Chlorophenyl)-6-(2,6-dimethylphenyl)-2,2-dioxo-9-oxa-2λ^6-thia-3,5,12,19-tetrazatricyclo[12.3.1.14,8]nonadeca-1(18),4(19),5,7,14,16-hexaen-13-one] | – | – | +++ (+++ is >60%) | < 1 | ring closure, yield after HPLC (from Cc1cccc(C)c1-c1cc(OC(CN)c2ccccc2Cl)nc(NS(=O)(=O)c2cccc(C(=O)O)c2)n1, amide bond, 13-membered ring, HATU/DIEA, DMF, 42.4 mM, 25.0 °C, 1.0 h): 49% |
| Cc1cccc(C)c1-c1cc2nc(n1)NS(=O)(=O)c1cccc(c1)C(=O)NCC(c1cccc(Cl)c1)O2 (stereo not drawn) [Compound 32, 10-(3-Chlorophenyl)-6-(2,6-dimethylphenyl)-2,2-dioxo-9-oxa-2λ^6-thia-3,5,12,19-tetrazatricyclo[12.3.1.14,8]nonadeca-1(18),4(19),5,7,14,16-hexaen-13-one] | – | – | +++ (+++ is >60%) | < 1 | ring closure, yield after HPLC (from Cc1cccc(C)c1-c1cc(OC(CN)c2cccc(Cl)c2)nc(NS(=O)(=O)c2cccc(C(=O)O)c2)n1, amide bond, 13-membered ring, HATU/DIEA, DMF, 41.6 mM, 25.0 °C, 1.0 h): 27% |
| Cc1cccc(C)c1-c1cc2nc(n1)NS(=O)(=O)c1cccc(c1)C(=O)NCC(c1ccc(OCC3(C(F)(F)F)CC3)cc1)O2 (stereo not drawn) [Compound 33, 6-(2,6-Dimethylphenyl)-2,2-dioxo-10-[4-[[1-(trifluoromethyl)cyclopropyl]methoxy]phenyl]-9-oxa-2λ^6-thia-3,5,12,19-tetrazatricyclo[12.3.1.14,8]nonadeca-1(18),4(19),5,7,14,16-hexaen-13-one] | – | – | +++ (+++ is >60%) | < 1 | ring closure, yield after HPLC (from Cc1cccc(C)c1-c1cc(OC(CN)c2ccc(OCC3(C(F)(F)F)CC3)cc2)nc(NS(=O)(=O)c2cccc(C(=O)O)c2)n1, amide bond, 13-membered ring, HATU/DIEA, DMF, 48.7 mM, 25.0 °C, 72.0 h): 10% |
| Cc1cccc(C)c1-c1cc2nc(n1)NS(=O)(=O)c1cccc(c1)C(=O)N[C@H](C)[C@@H](c1ccc(C(F)(F)F)cc1)O2 [Compound 41, (10R,11R)-6-(2,6-Dimethylphenyl)-11-methyl-2,2-dioxo-10-[4-(trifluoromethyl)phenyl]-9-oxa-2λ^6-thia-3,5,12,19-tetrazatricyclo[12.3.1.14,8]nonadeca-1(18),4(19),5,7,14,16-hexaen-13-one] | ++ (++ is 30-60%) | < 1 | – | – | ring closure, yield after HPLC (from Cc1cccc(C)c1-c1cc(O[C@H](c2ccc(C(F)(F)F)cc2)[C@@H](C)N)nc(NS(=O)(=O)c2cccc(C(=O)O)c2)n1, amide bond, 13-membered ring, HATU/NaOtBu, DMF/THF, 96.3 mM, 25.0 °C, 0.33 h, 2 steps): 10% |
| Cc1cccc(C)c1-c1cc2nc(n1)NS(=O)(=O)c1cccc(c1)C(=O)N[C@H](C)[C@H](c1ccc(C(F)(F)F)cc1)O2 [Compound 42, (10S,11R)-6-(2,6-dimethylphenyl)-11-methyl-2,2-dioxo-10-[4-(trifluoromethyl)phenyl]-9-oxa-2λ^6-thia-3,5,12,19-tetrazatricyclo[12.3.1.14,8]nonadeca-1(18),4(19),5,7,14,16-hexaen-13-one] | ++ (++ is 30-60%) | < 1 | – | – | ring closure, yield after HPLC (from Cc1cccc(C)c1-c1cc(O[C@@H](c2ccc(C(F)(F)F)cc2)[C@@H](C)N)nc(NS(=O)(=O)c2cccc(C(=O)O)c2)n1, amide bond, 13-membered ring, HATU/NaOtBu, DMF/THF, 96.3 mM, 25.0 °C, 0.33 h, 2 steps): 4% |
| Cc1cccc(C)c1-c1cc2nc(n1)NS(=O)(=O)c1cccc(c1)C(=O)N[C@@H](C)[C@@H](c1ccc(C(C)(C)C)cc1)O2 [Compound 43, (10R,11S)-10-(4-tert-butylphenyl)-6-(2,6-dimethylphenyl)-11-methyl-2,2-dioxo-9-oxa-2λ^6-thia-3,5,12,19-tetrazatricyclo[12.3.1.14,8]nonadeca-1(18),4(19),5,7,14,16-hexaen-13-one] | +++ (+++ is >60%) | < 1 | – | – | ring closure, yield after HPLC (from Cc1cccc(C)c1-c1cc(O[C@H](c2ccc(C(C)(C)C)cc2)[C@H](C)N)nc(NS(=O)(=O)c2cccc(C(=O)O)c2)n1, amide bond, 13-membered ring, HATU/NaOtBu, DMF/THF, 53.4 mM, 25.0 °C, 0.1 h, 2 steps): 13% |
| Cc1cccc(C)c1-c1cc2nc(n1)NS(=O)(=O)c1cccc(c1)C(=O)NCCC(c1ccc(C(C)(C)C)cc1)O2 (stereo not drawn) [Compound 55, 10-(4-tert-Butylphenyl)-6-(2,6-dimethylphenyl)-2,2-dioxo-9-oxa-2λ^6-thia-3,5,13,20-tetrazatricyclo[13.3.1.14,8]icosa-1(19),4(20),5,7,15,17-hexaen-14-one] | ++ (++ is 30-60%) | 1 to 3 | – | – | ring closure, yield after HPLC (from Cc1cccc(C)c1-c1cc(OC(CCN)c2ccc(C(C)(C)C)cc2)nc(NS(=O)(=O)c2cccc(C(=O)O)c2)n1, amide bond, 14-membered ring, HATU/TEA, DMF, 204.0 mM, 50.0 °C, 0.25 h): 18% |
| Cc1cccc(C)c1-c1cc2nc(n1)NS(=O)(=O)N1CCCC(C1)C(=O)N[C@H](CC1CCCCC1)CO2 (stereo partly drawn) [Compound 73, (11R)-11-(Cyclohexylmethyl)-6-(2,6-dimethylphenyl)-2,2-dioxo-9-oxa-2λ^6-thia-1,3,5,12,19-pentazatricyclo[12.3.1.14,8]nonadeca-4(19),5,7-trien-13-one] | – | – | + (+ is <30%) | – | ring closure, yield after HPLC (from Cc1cccc(C)c1-c1cc(OC[C@H](N)CC2CCCCC2)nc(NS(=O)(=O)N2CCCC(C(=O)O)C2)n1, amide bond, 13-membered ring, HATU/DIEA, DMF, 19.2 mM, 3.0 h): 19% |

The next lines start with results.

| Ent. A Max Activity ([1]; Table 9) | EC50 ([1]; Table 9) [µM] | Ent. A Max Activity ([1]; Table 8) | EC50 ([1]; Table 8) [µM] | Compound | other results |
| --- | --- | --- | --- | --- | --- |
| +++ (+++ is >60%) | < 1 | – | – | COC[C@H]1NC(=O)c2cccc(c2)S(=O)(=O)Nc2nc(cc(-c3c(C)cccc3C)n2)OC1c1ccc(C(C)(C)C)cc1 (single isomer, unassigned) [Compound 45] | ring closure, yield after HPLC (from COC[C@@H](N)[C@H](Oc1cc(-c2c(C)cccc2C)nc(NS(=O)(=O)c2cccc(C(=O)O)c2)n1)c1ccc(C(C)(C)C)cc1, amide bond, 13-membered ring, HATU/DIEA, DMF, 161.6 mM, 25.0 °C, 0.5 h): 8%; ring closure, yield after HPLC (from COC[C@@H](N)[C@H](Oc1cc(-c2c(C)cccc2C)nc(NS(=O)(=O)c2cccc(C(=O)O)c2)n1)c1ccc(C(C)(C)C)cc1, amide bond, 13-membered ring, HATU/DIEA, DMF, 162.0 mM, 0.5 h): 10% |
| – | – | – | < 1 | Cc1cccc(C)c1-c1cc2nc(n1)NS(=O)(=O)c1cccc(c1)C(=O)NCC(c1ccc(C(C)(C)C)cn1)O2 (stereo not drawn) [Compound 6, 10-(5-tert-Butyl-2-pyridyl)-6-(2,6-dimethylphenyl)-2,2-dioxo-9-oxa-2λ^6-thia-3,5,12,19-tetrazatricyclo[12.3.1.14,8]nonadeca-1(18),4(19),5,7,14,16-hexaen-13-one] | ring closure, yield after HPLC (from Cc1cccc(C)c1-c1cc(OC(CN)c2ccc(C(C)(C)C)cn2)nc(NS(=O)(=O)c2cccc(C(=O)O)c2)n1, amide bond, 13-membered ring, HATU/DIEA, DMF, 40.9 mM, 25.0 °C, 0.25 h): 33% |
| – | – | + (+ is <30%) | – | Cc1cccc(C)c1-c1cc2nc(n1)NS(=O)(=O)c1cccc(c1)C(=O)NCC(C1CCOCC1)O2 (stereo not drawn) [Compound 34, 6-(2,6-Dimethylphenyl)-2,2-dioxo-10-tetrahydropyran-4-yl-9-oxa-2λ^6-thia-3,5,12,19-tetrazatricyclo[12.3.1.14,8]nonadeca-1(18),4(19),5,7,14,16-hexaen-13-one] | ring closure, yield after HPLC (from Cc1cccc(C)c1-c1cc(OC(CN)C2CCOCC2)nc(NS(=O)(=O)c2cccc(C(=O)O)c2)n1, amide bond, 13-membered ring, HATU/DIEA, DMF, 66.2 mM, 25.0 °C, 0.25 h): 25% |
| +++ (+++ is >60%) | < 1 | – | – | Cc1cccc(COCc2ccccc2)c1-c1cc2nc(n1)NS(=O)(=O)c1cccc(c1)C(=O)N[C@H](CC(C)C)CO2 [Compound 106, (11R)-6-[2-(benzyloxymethyl)-6-methyl-phenyl]-11-isobutyl-2,2-dioxo-9-oxa-2λ^6-thia-3,5,12,19-tetrazatricyclo[12.3.1.14,8]nonadeca-1(18),4(19),5,7,14,16-hexaen-13-one] | ring closure, yield after HPLC (from Cc1cccc(COCc2ccccc2)c1-c1cc(OC[C@H](N)CC(C)C)nc(NS(=O)(=O)c2cccc(C(=O)O)c2)n1, amide bond, 13-membered ring, HATU/DIEA, DMF, 48.7 mM, 25.0 °C, 0.5 h): 30% |
